From US20110060000A1, “ACRIDINE ANALOGS IN THE TREATMENT OF GLIOMAS” (priority 2009, published 2011)
Entries after “also recorded” stand apart in the source; their conditions may differ.

What was measured:
GRP78 [1] = assay: GRP78 protein expression (SDS-PAGE, immunoblot) in C6; type: cell-based, rat; conditions: for GRP78 expression in C6 after challenge: brief exposure (8 h), FIG. 11; for GRP78 protein expression in C6: graded concentrations, THAP 24 hours, TUN 8 hours
Procedure: (§1) Astrocytes and C6 were exposed to graded concentration of THAP as indicated in the captions for 24 hours. Thereafter, protein were extracted and run on a SDS-PAGE and immunoblotted with an anti-GRP78 antibody. Filters were exposed to ECL and films were impressed and developed (Panel B). Films were digitalized using a high resolution scanner and analyzed used imageJ (NIH). Densitometric values were averaged and plotted in the graph (Panel A). Loading conditions were checked using GAPDH housekeeping gene.
(§2) Astrocytes and C6 were exposed to TUN for 8 hours at concentrations ranging from 1.25 μg/ml to 10 μg/ml. Proteins were extracted, separated on a SDS-PAGE and immunoblotted. Filters were exposed to ECL and used to impress films (Panel B). Developed films were subsequently digitized with a high resolution scanner and analyzed with the software ImageJ (NIH). Densitometric values were averaged and plotted in the graph (Panel A).
(§3) Cells were treated as specified in the graph labeling. It is evident that glioma cells have enhanced GRP78 expression than astrocytes regardless of the challenging agent. N.T.=untreated; D=DMSO; T=TUN; Th=THAP.

GRP78 [2] = assay: GRP78 protein expression (SDS-PAGE, immunoblot) in astrocytes; type: cell-based, rat; conditions: for GRP78 levels in astrocytes after challenge: brief exposure (8 h), FIG. 11; for GRP78 protein expression in astrocytes: graded concentrations, THAP 24 hours, TUN 8 hours
Procedure: as §1, §2, §3

caspase 12 [3] = assay: Procaspase 12 cleavage in C6; type: cell-based, rat
Procedure: (§4) Cells were treated with the agents as indicated in the x axis. Subsequently cells were harvested and protein was extracted and then separated via SDS-PAGE and immunoblotted. The arrow highlights the 45 kDa band that results from cleavage of procaspase 12 and corresponding to the active caspase.
(§5) Thereafter, cells were harvested and protein extracted. Procaspase 12 band at 65 kDa was identified. In some of the treatments, the active product at 45 kDa was also detected. […] Conversely, in C6, higher GRP78 levels and the cell environment reflect significant caspase activation. […] Caspase activation in ERSR conditions was also confirmed with a TUNEL based apoptosis detection system in C6. C6 were treated with THAP for 24 hours and thereafter processed for TUNEL accordingly to manufacturer instructions. Staurosporin, a well known inducer of apoptosis in glial cells, was also included as a positive control. High resolution images of the experiments were acquired and image morphometric analysis was performed to determine quantitative parameters of the staining as previously described (Pascale et al., 2004, “Translocation of protein kinase C-betaII in astrocytes requires organized actin cytoskeleton and is not accompanied by synchronous RACK1 relocation.” Glia 46(2): 169-82). […]

caspase 12 [4] = assay: Procaspase 12 cleavage in astrocytes; type: cell-based, rat
Procedure: as §4, §5

C6 = assay: [Ca2+]i measurement in C6; type: cell-based, rat
From the text: (§6) (Statistical analysis it is shown in the inset. Values at the peak of the response have been analyzed using ANOVA followed by T-test, ** indicate P<0.01.).
(§7) Ca^2+ mobilization from ER was caused using an agonist acting via inositol trisphosphate elevation, mimicking physiological responses. In these conditions the dynamics of Ca^2+ transients were observe in these two cell lines. It appears evident that the plateau phase in C6 is consistently larger than in astrocytes.
(§8) Panel A: Challenge of astrocytes with ATP show the unchanged typical spike and plateau response. Panel B: In C6 an oscillatory pattern is readily detectable in response to treatment with TUN.
Tools and protocols have been developed to cleanly observe capacitative Ca^2+ entry (CCE), the phenomenon that allows the replenishment of intracellular Ca^2+ (ICS) stores and make quantitative and qualitative assessments. In particular, in astrocytes, capacitative Ca^2+ entry happens in absence of cytoplasmic Ca^2+ concentration ([Ca^2+]i) elevation (Grimaldi; 2006)(FIG. 1). […] The study was designed to investigate if there was a difference between astrocytes and glial cancer cells in this distinctive homeostatic pattern. The findings presented in this study, indicate that there are striking differences between glial cells and their cancer counterpart. The model utilizes rat cells but the observations extend and apply to human glioma cells as well. When the responses of normal astrocytes and C6 cells to thapsigargin (THAP), an agent able to block SERCA, therefore causing the release of Ca^2+ from the ER, were compared it was evident that C6 was more sensitive to the THAP (FIG. 2). However, the difference can be ascribed to one of many possibilities. […]
(§9) This phase is dependent on the balance of Ca^2+ influx triggered by store depletion and the reuptake in the ER due to SERCA activity. […] To investigate the role of influx triggered by ICS depletion, CCE was analyzed following THAP-induced depletion of ICS. […]

astrocytes = assay: [Ca2+]i measurement in astrocytes; type: cell-based, rat
From the text: as §6, §7, §8
Tools and protocols have been developed to cleanly observe capacitative Ca^2+ entry (CCE), the phenomenon that allows the replenishment of intracellular Ca^2+ (ICS) stores and make quantitative and qualitative assessments. In particular, in astrocytes, capacitative Ca^2+ entry happens in absence of cytoplasmic Ca^2+ concentration ([Ca^2+]i) elevation (Grimaldi; 2006)(FIG. 1). […]
as §9

C6 cells = conditions: tested at less than 1 μM; cited from earlier work
platelets = conditions: cited from earlier work
[5] = intrapleural, 100 mg/day in 50 ml saline for 4 days; cited from earlier work
tumor cells = conditions: in vitro and in vivo; cited from earlier work

## C/C=C(/C)C(=O)O[C@H]1C(C)=C2[C@H]([C@@H]1OC(=O)CCCCCCC)[C@@](C)(OC(C)=O)C[C@H](OC(=O)CCC)[C@@]1(O)[C@H]2OC(=O)[C@@]1(C)O [THAP, thapsigargin]
GRP78 [1]; Rattus norvegicus, Astrocyte, stated in GRP78 expression experiment, astrocytes and C6, read-out: EC50 of the substance
  EC50: 2 to 5 nM
GRP78 [1]
  GRP78 expression in C6 after challenge: enhanced significantly
  GRP78 protein expression in C6: stronger elevation; also recorded: dramatically higher elevation of GRP78
GRP78 [2]
  GRP78 levels in astrocytes after challenge: always significantly lower than levels reached in C6 and U87-MG
  GRP78 protein expression in astrocytes: increased GRP78 expression
Caspase 12 [3]
  activation of caspase 12 (45 kDa active product) in C6: significant activation of caspase 12
Caspase 12 [4]
  activation of caspase 12 in astrocytes: completely unresponsive
C6; 2 μM THAP
  [Ca2+]i elevation in C6: significantly higher than in astrocytes
astrocytes; 2 μM THAP
  [Ca2+]i elevation in astrocytes: caused elevation of [Ca^2+]i

## CCN(CC)CCCC(C)Nc1c2ccc(Cl)cc2nc2ccc(OC)cc12 (stereo not drawn) [quinacrine]
C6 cells
  killing of C6 cells: ineffective in killing C6 cells
platelets
  alpha-granule release reaction of platelets: prevent the alpha-granule release reaction of platelets
[5]
  peak concentration: less than 10 ng/ml
Tumor cells
  toxicity to tumor versus normal cells: more toxic to tumor than to normal cells

## tunicamycin
GRP78 [1]
  GRP78 expression in C6 after challenge: enhanced significantly
  GRP78 protein expression in C6: concentration related elevation of GRP78 protein expression; also recorded: larger in C6 than in astrocytes at every concentration tested
GRP78 [2]
  GRP78 levels in astrocytes after challenge: always significantly lower than levels reached in C6 and U87-MG
  GRP78 protein expression in astrocytes: concentration related elevation of GRP78 protein expression
Caspase 12 [3]
  activation of caspase 12 (45 kDa active product) in C6: significant activation of caspase 12
Caspase 12 [4]
  activation of caspase 12 in astrocytes: completely unresponsive
C6; challenge with ATP
  Ca2+ transients in C6 after TUN pretreatment: appearance of [Ca^2+]i oscillations at high frequency and high amplitude
astrocytes; challenge with ATP
  Ca2+ transients in astrocytes after TUN pretreatment: transients were not changed
